In one experiment the test system is HCV 1b genotype. Briefly: HCV replicon assay (HCV-neo replicon cells, wild-type). It counts as cell-based, Hepatitis C virus. The settings on record: HCV 1b genotype replicon; class symbols; read-out: EC50 Range against HCV 1b. Put shortly:
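HCV-neo replicon cells (wild-type) and replicon cells carrying NS5A resistance substitutions were treated with compounds; assay per O'Boyle et al. 2005, with luciferase-reporter read-out variants also used.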
A general note: Replicon systems follow genome replication, usually without infectious particles.
The term EC50 denotes the midpoint of the concentration-response curve. As to `CN(C)[C@H](C(=O)N1CCC[C@H]1C(=O)Nc1ccc(-c2cnc(-c3ccc(NC(=O)[C@@H]4CCCN4C(=O)[C@H]([C@H](O)c4ccsc4)N(C)C)cc3)o2)cc1)[C@H](O)c1ccsc1` [JR-16, (S,R,2S)-N,N′-(4,4′-(oxazole-2,5-diyl)bis(4,1-phenylene))bis(1-((2S,3R)-2-(dimethylamino)-3-hydroxy-3-(thiophen-3-yl)propanoyl)pyrrolidine-2-carboxamide)], the half-maximal effective concentration (EC50) lay in the range of 1000 to 10000 nM. On the same count and under the same terms, the figure for `CN(C)[C@H](C(=O)N1CCC[C@H]1C(=O)Nc1ccc(-c2cnc(-c3ccc(NC(=O)[C@@H]4CCCN4C(=O)[C@H]([C@@H](O)c4ccccc4)N(C)C)cc3)o2)cc1)[C@@H](O)c1ccccc1` [JR-13, (S,S,2S)-N,N′-(4,4′-(oxazole-2,5-diyl)bis(4,1-phenylene))bis(1-((2S,3S)-2-(dimethylamino)-3-hydroxy-3-phenylpropanoyl)pyrrolidine-2-carboxamide)] is 100 to 999 nM.

As to `O=C(Nc1ccc(-c2cnc(-c3ccc(NC(=O)[C@@H]4CCCN4C(=O)Cc4cnc[nH]4)cc3)o2)cc1)[C@@H]1CCCN1C(=O)Cc1c[nH]cn1` [XY-14, (2S)-1-(1H-imidazol-4-ylacetyl)-N-(4-(2-(4-((((2S)-1-(1H-imidazol-5-ylacetyl)-2-pyrrolidinyl)carbonyl)amino)phenyl)-1,3-oxazol-5-yl)phenyl)-2-pyrrolidinecarboxamide (non-preferred name)], the EC50 was in the range of 1000 to 10000 nM.

Staying with this experiment, now noted: HCV 1b genotype replicon; read-out: EC50 1b.
Take `CN(C)[C@H](C(=O)N1CCC[C@H]1C(=O)Nc1ccc(-c2cnc(-c3ccc(NC(=O)[C@@H]4CCCN4C(=O)[C@H]([C@@H](O)c4ccccc4)N(C)C)cc3)o2)cc1)[C@@H](O)c1ccccc1` [JR-13, (S,S,2S)-N,N′-(4,4′-(oxazole-2,5-diyl)bis(4,1-phenylene))bis(1-((2S,3S)-2-(dimethylamino)-3-hydroxy-3-phenylpropanoyl)pyrrolidine-2-carboxamide)]: the concentration giving a half-maximal response (EC50) is 112 nM.

The same experiment, now with this note: Hepatitis C virus, HCV 1b genotype replicon; class symbol; read-out: EC50 Range against HCV 1b.
Turning to `O=C(Nc1ccc(-c2nnc(-c3ccc(NC(=O)[C@@H]4CCCN4C(=O)c4cccc(Cl)n4)cc3)o2)cc1)[C@@H]1CCCN1C(=O)c1cccc(Cl)n1` [RK-12, (2S,2′S)-N,N′-(1,3,4-oxadiazole-2,5-diyldi-4,1-phenylene)bis(1-((6-chloro-2-pyridinyl)carbonyl)-2-pyrrolidinecarboxamide)], the EC50 lay in the range of 1000 to 10000 nM.

Take `O=C(Nc1ccc(-c2cnc(-c3ccc(NC(=O)[C@@H]4CCCN4C(=O)C(O)c4ccccn4)cc3)o2)cc1)[C@@H]1CCCN1C(=O)C(O)c1ccccn1` (stereo partly drawn) [Example D-14, (2S,2′S)-N,N′-(1,3-oxazole-2,5-diyldi-4,1-phenylene)bis(1-(hydroxy(2-pyridinyl)acetyl)-2-pyrrolidinecarboxamide)]: the 50% effective concentration (EC50) was in the range of 100 to 999 nM. Turning to `COc1cccc2c(C(=O)N3CCC[C@H]3C(=O)Nc3ccc(-c4ccc(-c5ccc(NC(=O)[C@@H]6CCCN6C(=O)[C@H](O)c6ccccc6)cc5)o4)cc3)nc(Cl)cc12` [JG-64, (2S)-1-((3-chloro-5-methoxy-1-isoquinolinyl)carbonyl)-N-(4-(5-(4-((((2S)-1-((2R)-2-hydroxy-2-phenylacetyl)-2-pyrrolidinyl)carbonyl)amino)phenyl)-2-furyl)phenyl)-2-pyrrolidinecarboxamide], the EC50 was in the range of 4.57 to 99 nM. Same read-out and setting: the figure for `O=C(Nc1ccc(-c2ccc(-c3ccc(NC(=O)[C@@H]4CCCN4C(=O)OCc4ccccc4)cc3)o2)cc1)[C@@H]1CCCN1C(=O)OCc1ccccc1` [JG-54, dibenzyl (2S,2′S)-2,2′-(2,5-furandiylbis(4,1-phenylenecarbamoyl))di(1-pyrrolidinecarboxylate)] is 100 to 999 nM. Same read-out and setting: then `COCC[C@H](NC(=O)Cc1ccccc1)C(=O)Nc1ccc(-c2cnc(-c3ccc(NC(=O)[C@H](CCOC)NC(=O)Cc4ccccc4)cc3)o2)cc1` [JG-15, (2S,2′S)-N,N′-(1,3-oxazole-2,5-diyldi-4,1-phenylene)bis(4-methoxy-2-((phenylacetyl)amino)butanamide)], with 100 to 999 nM; and `CC(C)[C@H](NC(=O)OCc1ccccc1)C(=O)Nc1ccc(-c2cnc(-c3ccc(NC(=O)[C@@H](NC(=O)OCc4ccccc4)C(C)C)cc3)o2)cc1` [JG-4, dibenzyl (1,3-oxazole-2,5-diylbis(4,1-phenyleneimino((2S)-3-methyl-1-oxo-1,2-butanediyl)))biscarbamate], with 100 to 999 nM.

Take `CCC(=O)N1CCC[C@H]1C(=O)Nc1ccc(-c2cc(-c3ccc(NC(=O)[C@@H]4CCCN4C(=O)CC)cc3)[nH]n2)cc1` [OL-32, (2S,2′S)-N,N′-(1H-pyrazole-3,5-diyldi-4,1-phenylene)bis(1-propionyl-2-pyrrolidinecarboxamide)]: the concentration for a half-maximal effect (EC50) lay within 1000 to 10000 nM. Same read-out and setting: then `COc1cccc(C(=O)N2CCC[C@H]2C(=O)Nc2ccc(-c3nnc(-c4ccc(NC(=O)[C@@H]5CCCN5C(=O)c5cccc(OC)c5)cc4)o3)cc2)c1` [RK-7, (2S,2′S)-N,N′-(1,3,4-oxadiazole-2,5-diyldi-4,1-phenylene)bis(1-(3-methoxybenzoyl)-2-pyrrolidinecarboxamide)], with 100 to 999 nM; and `CC(=O)N[C@@H](C(=O)N1CCCC1C(=O)Nc1ccc(-c2cnc(-c3ccc(NC(=O)C4CCCN4C(=O)[C@H](NC(C)=O)c4ccccc4)cc3)o2)cc1)c1ccccc1` (stereo partly drawn) [OL-53, N,N′-(1,3-oxazole-2,5-diyldi-4,1-phenylene)bis(1-((2R)-2-acetamido-2-phenylacetyl)-2-pyrrolidinecarboxamide)], with < 4.57 nM. On to `COc1cccc2c(C(=O)N3CCC[C@H]3C(=O)Nc3ccc(-c4cnc(-c5ccc(NC(=O)[C@@H]6CCCN6C(=O)[C@@H](c6ccccc6)N(C)C)cc5)o4)cc3)nc(Cl)cc12` [OL-61, (2S)-1-((3-chloro-5-methoxy-1-isoquinolinyl)carbonyl)-N-(4-(2-(4-((((2S)-1-((2R)-2-(dimethylamino)-2-phenylacetyl)-2-pyrrolidinyl)carbonyl)amino)phenyl)-1,3-oxazol-5-yl)phenyl)-2-pyrrolidinecarboxamide], for which the EC50 was 4.57 to 99 nM. Regarding `O=C(Nc1ccc(-c2cnc(-c3ccc(NC(=O)N[C@@H]4CCN(C(=O)[C@@H](O)c5ccccc5)C4)cc3)o2)cc1)N[C@@H]1CCN(C(=O)[C@@H](O)c2ccccc2)C1` [FY-6, N′,N′″-(1,3-oxazole-2,5-diyldi-4,1-phenylene)bis(1-((3R)-1-((2S)-2-hydroxy-2-phenylacetyl)-3-pyrrolidinyl)urea)], the concentration for a half-maximal effect (EC50) was 100 to 999 nM.

For the compound `C[C@H](NC(=O)[C@@](C)(O)c1ccccc1)C(=O)Nc1ccc(-c2nnc(-c3ccc(NC(=O)[C@H](C)NC(=O)[C@@](C)(O)c4ccccc4)cc3)o2)cc1` [RK-30, (2S,2′S)-N,N′-(1,3,4-oxadiazole-2,5-diylbis(4,1-phenyleneimino((2S)-1-oxo-1,2-propanediyl)))bis(2-hydroxy-2-phenylpropanamide)], the EC50 was in the range of 100 to 999 nM.

As for `O=C(Nc1ccc(-c2nnc(-c3ccc(NC(=O)[C@@H]4CCCN4C(=O)[C@@H]4CCCO4)cc3)o2)cc1)[C@@H]1CCCN1C(=O)C1CCCO1` (stereo partly drawn) [Example D-60, (S,2S,2′S)-N,N′-(4,4′-(1,3,4-oxadiazole-2,5-diyl)bis(4,1-phenylene))bis(1-((S)-tetrahydrofuran-2-carbonyl)pyrrolidine-2-carboxamide)], the EC50 lay within 100 to 999 nM.

On to `CC(=O)N1CCC[C@H]1C(=O)Nc1ccc(-c2cnc(-c3ccc(NC(=O)[C@@H]4CCCN4C(=O)Cc4ccccc4)cc3)o2)cc1` [MS-1, (2S)-1-acetyl-N-(4-(2-(4-((((2S)-1-(phenylacetyl)-2-pyrrolidinyl)carbonyl)amino)phenyl)-1,3-oxazol-5-yl)phenyl)-2-pyrrolidinecarboxamide], for which the 50% effective concentration (EC50) lay within 100 to 999 nM. Still for that read-out and setting: the figure for `C[C@@H](C(=O)N1CCC[C@H]1C(=O)Nc1ccc(-c2ccc(-c3ccc(NC(=O)[C@@H]4CCCN4C(=O)[C@H](C)c4ccccc4)cc3)o2)cc1)c1ccccc1` [JG-53, (2S,2′S)-N,N′-(2,5-furandiyldi-4,1-phenylene)bis(1-((2R)-2-phenylpropanoyl)-2-pyrrolidinecarboxamide)] is 4.57 to 99 nM.

The experiment is the same for the next values; noted with them: Hepatitis C virus, HCV 1b genotype replicon; class symbols; read-out: EC50 Range against HCV 1b.
Regarding `CC[C@@H](C(=O)N1CCC[C@H]1C(=O)Nc1ccc(-c2cnc(-c3ccc(NC(=O)[C@@H]4CCCN4C(=O)[C@H](CC)c4ccccc4)cc3)o2)cc1)c1ccccc1` [XY-20, (2S,2′S)-N,N′-(1,3-oxazole-2,5-diyldi-4,1-phenylene)bis(1-((2R)-2-phenylbutanoyl)-2-pyrrolidinecarboxamide)], the EC50 is 4.57 to 99 nM.

Consider `COCCOCC(=O)N1CCC[C@H]1C(=O)Nc1ccc(-c2cnc(-c3ccc(NC(=O)[C@@H]4CCCN4C(=O)COCCOC)cc3)o2)cc1` [XY-8, (2S,2′S)-N,N′-(1,3-oxazole-2,5-diyldi-4,1-phenylene)bis(1-((2-methoxyethoxy)acetyl)-2-pyrrolidinecarboxamide)], for which the concentration for a half-maximal effect (EC50) is 1000 to 10000 nM.

In the case of `CC(C)(CCl)C(=O)N1CCC[C@H]1C(=O)Nc1ccc(-c2cnc(-c3ccc(NC(=O)[C@@H]4CCCN4C(=O)C(C)(C)CCl)cc3)o2)cc1` [XY-17, (2S,2′S)-N,N′-(1,3-oxazole-2,5-diyldi-4,1-phenylene)bis(1-(3-chloro-2,2-dimethylpropanoyl)-2-pyrrolidinecarboxamide)], the 50% effective concentration (EC50) fell in the range of 100 to 999 nM. On to `CC(C)C(C(=O)N1CCC[C@H]1C(=O)Nc1ccc(-c2cnc(-c3ccc(NC(=O)[C@@H]4CCCN4C(=O)C(C(C)C)N4C(=O)C5C6C=CC(C6)C5C4=O)cc3)o2)cc1)N1C(=O)C2C3C=CC(C3)C2C1=O` (stereo partly drawn) [JR-19, (2S,2′S)-N,N′-(2,5-oxazolediyldi-4,1-phenylene)bis[1-[2-(1,3,3a,4,7,7a-hexahydro-1,3-dioxo-4,7-methano-2H-isoindol-2-yl)-3-methyl-1-oxobutyl]-2-pyrrolidinecarboxamide]], for which the EC50 fell in the range of 100 to 999 nM. Consider `COc1cccc(CC(=O)N2C[C@H](O)C[C@H]2C(=O)Nc2ccc(-c3cnc(-c4ccc(NC(=O)[C@@H]5C[C@@H](O)CN5C(=O)Cc5cccc(OC)c5)cc4)o3)cc2)c1` [XY-55, (2S,4R,2′S,4′R)-N,N′-(1,3-oxazole-2,5-diyldi-4,1-phenylene)bis(4-hydroxy-1-((3-methoxyphenyl)acetyl)-2-pyrrolidinecarboxamide)], for which the EC50 was in the range of 100 to 999 nM. Regarding `CC(C)(C)O[C@@H]1C[C@@H](C(=O)Nc2ccc(-c3cnc(-c4ccc(NC(=O)[C@@H]5C[C@@H](OC(C)(C)C)CN5C(=O)C(C)(C)C)cc4)o3)cc2)N(C(=O)C(C)(C)C)C1` [XY-63, (2S,4R,2′S,4′R)-N,N′-(1,3-oxazole-2,5-diyldi-4,1-phenylene)bis(4-tert-butoxy-1-(2,2-dimethylpropanoyl)-2-pyrrolidinecarboxamide)], the concentration for a half-maximal effect (EC50) is 100 to 999 nM.

Still in this experiment, the particulars now being: Hepatitis C virus, HCV 1b genotype replicon; read-out: EC50 1b.
Regarding `O=C(Nc1ccc(-c2nnc(-c3ccc(NC(=O)[C@@H]4CCCN4C(=O)c4cccc(Cl)n4)cc3)o2)cc1)[C@@H]1CCCN1C(=O)c1cccc(Cl)n1` [RK-12, (2S,2′S)-N,N′-(1,3,4-oxadiazole-2,5-diyldi-4,1-phenylene)bis(1-((6-chloro-2-pyridinyl)carbonyl)-2-pyrrolidinecarboxamide)], the EC50 was 3960 nM. With `CC[C@@H](C(=O)N1CCC[C@H]1C(=O)Nc1ccc(-c2cnc(-c3ccc(NC(=O)[C@@H]4CCCN4C(=O)[C@H](CC)c4ccccc4)cc3)o2)cc1)c1ccccc1` [XY-20, (2S,2′S)-N,N′-(1,3-oxazole-2,5-diyldi-4,1-phenylene)bis(1-((2R)-2-phenylbutanoyl)-2-pyrrolidinecarboxamide)], the EC50 was 62 nM.

Take `O=C(Nc1ccc(-c2nnc(-c3ccc(NC(=O)[C@@H]4CCCN4C(=O)[C@@H]4CCCO4)cc3)o2)cc1)[C@@H]1CCCN1C(=O)C1CCCO1` (stereo partly drawn) [Example D-60, (S,2S,2′S)-N,N′-(4,4′-(1,3,4-oxadiazole-2,5-diyl)bis(4,1-phenylene))bis(1-((S)-tetrahydrofuran-2-carbonyl)pyrrolidine-2-carboxamide)]: the 50% effective concentration (EC50) was found to be 650 nM.

These data come from patent US8735398B2 (Bristol-Myers Squibb Company, priority 2009, dated 2014).
